In patent US20060240026A1, “Preventing and/or remedy hematopoietic tumor” (GREEN PEPTIDE CO., LTD., priority 2003, published 2006):
“And” between values parts separate entries of the source, which are not always exact repeats. Identical values can stand only once. “Also recorded” adds a separate entry of the source. Ends that are not written are not given here.

Assays:
[1] = test system: HLA-A24+ PHA blastoid T-cell; test: 51Cr-release test of peptide-stimulated PBMCs against normal cells; type: cell-based, human; conditions: peptide-stimulated patient PBMCs further cultured with IL-2; effector/target 3, 10 or 30; 6 h
Procedure: (§1) Then, the cytotoxicity against hematologic malignant cell lines was examined by a standard ^51Cr-release test (Non-Patent Reference 5). Specifically, the PBMCs obtained were used as an effector to mix with ^51Cr-labelled target cells (hereinafter referred to as targets) at an effector/target rate of 3, 10 or 30, and then incubated for six hours, followed by measuring the radioactivity of ^51Cr released in the supernatants. The results obtained were indicated as % lysis which was calculated by regarding a radioactivity as 100% when the targets were completely dissolved. The following targets were used: PEER, an HLA-A24^+ hematologic malignant cell line; HPB-MLT, an HLA-A24^− hematologic malignant cell line; and an HLA-A24^+ PHA blastoid T-cell.

[2] = test system: HLA-A24+ hematologic malignant cell line (PEER, REH); test: 51Cr-release test of peptide-stimulated PBMCs against HLA-A24+ malignant line; type: cell-based, human; conditions: peptide-stimulated patient PBMCs further cultured with IL-2, effector/target 3, 10 or 30, 6 h
Procedure: as §1

[3] = test system: HLA-A24- hematologic malignant cell line (HPB-MLT); test: 51Cr-release test of peptide-stimulated PBMCs against HLA-A24- malignant line; type: cell-based, human; conditions: peptide-stimulated patient PBMCs further cultured with IL-2; effector/target 3, 10 or 30; 6 h
Procedure: as §1

[4] = test system: C1R-A24 cells pulsed with the peptides; test: Peptide-specific cytotoxic activity of PBMCs of vaccinated multiple myeloma patient (51Cr-release); type: in vivo, human; conditions: for peptide-specific cytotoxic activity of PBMCs: MM patient No. 6, PBMCs acquired after the sixth vaccination; for cytotoxic activity (% lysis) against C1R-A24 cells pulsed with corresponding peptide: MM patient No. 6, with the increasing number of peptide vaccination
Excerpt: The patient (patient No. 6 in table 2) subjected to clinical trials was a HLA-A24^+ […] suffering from IgA-type multiple myeloma with a stage III by Durie & Salmon's classification. The patient received multiple cycles of chemotherapy before participating in this clinical test and had acquired the resistance to chemotherapy. However, for four weeks before peptide vaccination, the patient had not received chemotherapy and administration with steroid or any other immunosuppressive drugs.
Three kinds of emulsions each of which contains each of these peptides respectively and an adjuvant were prepared according to the method described in Example 1, and vaccinated to the patient by injecting subcutaneously at different sites of the patient's lateral thigh. […] The skin test was conducted by injecting intradermally the solution of 50 μg of each peptide in physiological saline and determining immediate-type or delayed-type hypersensitivity reaction at 20 minutes or 24 hours after the injection.
The vaccinations were conducted seven times every two weeks using SART-1690 (SEQ ID NO: 4), Lck488 (SEQ ID NO: 2) and ART-1170 (SEQ ID NO: 10). The cytotoxic activity of PBMCs acquired after the sixth vaccination was measured according to the in vitro test described in Example 3. […] Therefore, in the eighth and later vaccinations, three kinds of emulsions each of which contains SART-1690 (SEQ ID NO: 4), Lck488 (SEQ ID NO: 2) or Lck208 (SEQ ID NO: 1) and an adjuvant were prepared according to the method described in Example 1 and used.
After the vaccinations, PBMCs derived from the patient were studied for their peptide-specific cytotoxic activity by ^51Cr-release test using C1R-A24 cells pulsed with the peptides used. […] On the other hand, their cytotoxic activity was extremely low against RPMI-8226 that is an HLA-A24^− myeloid cell line.

[5] = test system: PBMCs of HLA-A24+ patients with hematologic malignancies; test: IFN-γ production by peptide-stimulated patient PBMCs in response to peptide-pulsed C1R-A24 cells; type: cell-based, human; parameters: peptide-specific IFN-γ production: unit not given here; conditions: for peptide-specific IFN-γ production: 10 μM peptide in vitro, vs peptide-pulsed C1R-A24, HIV-peptide background subtracted; for Responding case/total (enhancement of IFN-γ production): ten HLA-A24+ patients with hematologic malignancies
Procedure: The induction of peptide-specific cytotoxic T lymphocytes from PBMCs of a patient with hematologic malignancy was conducted as reported preveously (Non-Patent Reference 5). The following peptides were used to induce cytotoxic T lymphocytes: p56^lck protein-derived peptides (Lck208 (SEQ ID NO: 1), Lck488 (SEQ ID NO: 2) and Lck486 (SEQ ID NO: 3)); SART-1-derived peptide (SART-1690 (SEQ ID NO: 4)); SART-2-derived peptides (SART-293 (SEQ ID NO: 5), SART-2161 (SEQ ID NO: 6) and SART-2899 (SEQ ID NO: 7)); SART-3-derived peptides (SART-3109 (SEQ ID NO: 8) and SART-3315 (SEQ ID NO: 9)); and ART-1-derived peptide (ART-1170 (SEQ ID NO: 10)). All of these peptides are the epithelial cancer-related antigen-derived peptides and have the ability to induce cytotoxic T lymphocytes from PBMCs of an epithelial cancer patient in an HLA-A24 dependent manner (Non-Patent References 3-6 and 12). A human immunodeficiency virus (HIV)-derived peptide (SEQ ID NO: 11) and Epstein-Barr virus (EBV)-derived peptide (SEQ ID NO: 12) were used respectively as a negative control peptide and positive control peptide both of which have an HLA-A24-binding motif. […] PBMCs were prepared from peripheral blood that was collected from a patient with hematologic malignancy using Ficoll-Conray density-gradient centrifugation. The expression of HLA-A24 molecules on PBMCs was determined using flow cytometry by a well known method (Non-Patent Reference 5). The induction of cytotoxic T lymphocytes from PBMCs was conducted as follows. […] The culture medium consisted of 45% RPMI-1640, 45% AIM-V (Invitrogen), 10% FCS, 100 U/ml of interleukin-2 (IL-2), and 0.1 mM MEM non-essential amino acid solution (Invitrogen). […] The background IFN-γ production in response to the HIV-derived peptide (SEQ ID NO: 11) was subtracted from the values given in the data. When the mean value of the IFN-γ produced from the peptide-stimulated PBMCs in response to a corresponding peptide was higher than that produced in response to the HIV peptide (SEQ ID NO: 11), it was judged that the precursor of a peptide-specific cytotoxic T lymphocyte was present in the PBMCs and that the peptide-specific cytotoxic T lymphocytes were induced by the peptide. PBMCs of ten cases of HLA-A24^+ patients with hematologic malignancies (two cases with CLL, one case with MCL, one case with NHL, one case with B-ALL, one case with MM, one case with MDS, two cases with ATL, and one case with T-ALL) were tested for the induction of cytotoxic T lymphocytes using peptides that were derived from p56^lck protein, SART-1, SART-2, SART-3 and ART-1. The peptides used were the peptides that induced peptide-specific tumor-reactive cytotoxic T lymphocytes from PBMCs of an HLA-A24^+ epithelial cancer patient, which are currently on clinical trials for use as vaccines for epithelial cancer patients. The PBMCs were stimulated with the peptide in vitro to measure the peptide-specific IFN-γ production.

Compound | peptide-specific cytotoxic activity of PBMCs [4] | peptide-specific IFN-γ production ([5]; PBMCs of patient #1 CLL) | peptide-specific IFN-γ production ([5]; PBMCs of patient #2 CLL) | peptide-specific IFN-γ production ([5]; PBMCs of patient #3 MCL) | peptide-specific IFN-γ production ([5]; PBMCs of patient #4 NHL) | peptide-specific IFN-γ production ([5]; PBMCs of patient #5 B-ALL) | peptide-specific IFN-γ production ([5]; PBMCs of patient #6 MM) | peptide-specific IFN-γ production ([5]; PBMCs of patient #7 MDS) | peptide-specific IFN-γ production ([5]; PBMCs of patient #8 ATL) | peptide-specific IFN-γ production ([5]; PBMCs of patient #9 ATL) | peptide-specific IFN-γ production ([5]; PBMCs of patient #10 T-ALL) | Responding case/total (enhancement of IFN-γ production) [5] | other results
SYTRLFLIL [SART-2899] | – | – | – | – | – | – | – | – | – | – | – | – | cytotoxic activity (% lysis) against HLA-A24+ PHA blastoid T-cells [1]: did not show cytotoxic activity; cytotoxic activity (% lysis) against HLA-A24+ hematologic malignant line [2]: significant cytotoxic activity; cytotoxic activity (% lysis) against HLA-A24- hematologic malignant line [3]: did not show cytotoxic activity
AYDFLYNYL [SART-2161] | – | – | – | – | – | – | – | – | – | – | – | – | cytotoxic activity (% lysis) against HLA-A24+ PHA blastoid T-cells [1]: did not show cytotoxic activity; also recorded: did not exhibit cytotoxic activity; cytotoxic activity (% lysis) against HLA-A24+ hematologic malignant line [2]: significant cytotoxic activity; also recorded: exhibited cytotoxic activity; cytotoxic activity (% lysis) against HLA-A24- hematologic malignant line [3]: did not show cytotoxic activity; also recorded: did not exhibit cytotoxic activity
Lck208: p56lck protein-derived peptide, N-terminal residue at position 208; epithelial cancer-related antigen peptide (HYTNASDGL; Partial peptide of p56lck protein) | observed | 0 | 2 | 22 | 30 | 0 | 0 | 0 | 0 | 445 | 153 | two and 2/10 | cytotoxic activity (% lysis) against C1R-A24 cells pulsed with corresponding peptide [4]: enhanced induction of cytotoxic activity
RYLRDQQLLGI [HIV, reference compound] | – | – | – | – | – | – | – | – | – | – | – | – | cytotoxic activity (% lysis) against HLA-A24+ hematologic malignant line ([2]; listed as HIV-derived peptide): not observed; cytotoxic activity (% lysis) against HLA-A24+ hematologic malignant line ([2]; listed as human immunodeficiency virus (HIV)-derived peptide): exhibited no cytotoxic activity
Lck488: p56lck protein-derived peptide; epithelial cancer-related antigen peptide (DYLRSVLEDF; Partial peptide of p56lck protein) | observed | 0 | 0 | 0 | 0 | 6 | 182 | 102 | 476 | 304 | 0 | four and 4/10 | cytotoxic activity (% lysis) against C1R-A24 cells pulsed with corresponding peptide [4]: enhanced induction of cytotoxic activity
SART-3315: SART-3-derived peptide; epithelial cancer-related antigen peptide (AYIDFEMKI; Partial peptide of SART-3) | – | 39 | 137 | 6 | 0 | 11 | 0 | 0 | 22 | 60 | 6 | 1/10 | –
SART-1690: SART-1-derived peptide; epithelial cancer-related antigen peptide (EYRGFTQDF; Partial peptide of SART-1) | observed | 0 | 486 | 0 | 53 | 8 | 141 | 0 | 55 | 155 | 26 | 3/10 | –
CSCC[C@H](NC(=O)[C@H](Cc1ccccc1)NC(=O)[C@@H](NC(=O)[C@@H]1CCCN1C(=O)CNC(=O)[C@H](Cc1ccc(O)cc1)NC(=O)[C@@H](N)[C@@H](C)O)C(C)C)C(=O)N[C@@H](CS)C(=O)N[C@@H](CC(C)C)C(=O)O [EBV, reference compound] | – | – | – | – | – | – | – | – | – | – | – | – | cytotoxic activity (% lysis) against HLA-A24+ hematologic malignant line ([2]; listed as EBV derive peptides): not observed; cytotoxic activity (% lysis) against HLA-A24+ hematologic malignant line ([2]; listed as EBV-derived peptide): exhibited no cytotoxic activity; cytotoxic activity (% lysis) against HLA-A24+ hematologic malignant line ([2]; listed as Epstein-Barr virus (EBV)-derived peptide): exhibited no cytotoxic activity
